The record followed here is patent US8580803B2, “Substituted pyrrolo-aminopyrimidine compounds” (ArQule, Inc., priority 2009, dated 2013).

Molecules are shown by their SMILES.

Sequence of AKT1 (P31749 whole entry): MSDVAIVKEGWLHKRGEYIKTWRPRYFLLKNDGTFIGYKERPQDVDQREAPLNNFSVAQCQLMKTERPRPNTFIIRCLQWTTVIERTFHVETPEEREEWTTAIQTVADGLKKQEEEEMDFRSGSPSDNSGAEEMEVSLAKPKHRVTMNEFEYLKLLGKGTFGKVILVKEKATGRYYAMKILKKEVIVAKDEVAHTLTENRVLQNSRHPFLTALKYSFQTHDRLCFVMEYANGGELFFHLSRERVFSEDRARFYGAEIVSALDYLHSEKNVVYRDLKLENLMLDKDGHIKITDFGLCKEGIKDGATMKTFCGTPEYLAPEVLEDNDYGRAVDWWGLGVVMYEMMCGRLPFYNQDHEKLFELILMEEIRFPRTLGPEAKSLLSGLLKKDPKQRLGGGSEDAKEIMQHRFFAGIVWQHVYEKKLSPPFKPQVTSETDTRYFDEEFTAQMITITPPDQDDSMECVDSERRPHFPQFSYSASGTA

The target in one series is T1, ACK1 (110-489) (Homo sapiens, UniProt Q07912).
T1 construct: ACK1 110-489 (12.5 μl) were added to each well
T1 sequence (Q07912 110-489, species assumed): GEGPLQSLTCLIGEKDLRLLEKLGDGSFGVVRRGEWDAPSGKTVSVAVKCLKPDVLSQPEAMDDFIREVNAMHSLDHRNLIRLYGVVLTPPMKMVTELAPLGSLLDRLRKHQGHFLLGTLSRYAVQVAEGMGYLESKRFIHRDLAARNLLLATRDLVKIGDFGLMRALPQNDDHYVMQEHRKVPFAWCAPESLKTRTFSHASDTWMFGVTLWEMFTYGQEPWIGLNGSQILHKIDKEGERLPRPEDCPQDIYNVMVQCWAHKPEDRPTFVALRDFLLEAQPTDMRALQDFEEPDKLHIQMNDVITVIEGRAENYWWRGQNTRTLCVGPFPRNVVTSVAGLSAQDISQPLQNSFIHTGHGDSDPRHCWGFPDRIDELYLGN
Nature of the series: ACK1 Activity Assay (AlphaScreen, PYK2-derived peptide).
Conditions: not given
It is filed as biochemical. The procedure: The extent of peptide phosphorylation was determined by using acceptor beads conjugated to phosphotyrosine antibody that recognizes the phosphorylated peptide and donor beads conjugated to streptavidin that binds to the biotin on the peptide. Excitation of the donor beads converted ambient oxygen to excited singlet oxygen which when in close proximity to acceptor beads, reacted with acceptor beads where the signal was amplified.
Test inhibitors and controls (N-(2,6-dimethylphenyl)-4-(2-ethoxyphenoxy)-2-[(4-piperazin-1-ylphenyl)amino]pyrimidine-5-carboxamide) were prepared in 10% DMSO at 10× the desired final concentration. […] After a 20-min incubation at room temperature, the kinase reaction was initiated by the addition of 10 μl of PYK2/ATP mixture. […] The plates were incubated for 60 min at room temperature. The reaction was stopped by the addition of 10 μl stop/detection mixture which contains EDTA (final concentration is 10 mM), AlphaScreen™ Streptavidin Donor beads (final concentration is 500 ng/well) and AlphaScreen™ Phospho-tyrosine (P-Tyr-100) Acceptor beads (final concentration is 500 ng/well) were diluted in assay buffer. This reagent addition step was performed in the dark because the AlphaScreen™ beads are light-sensitive. The plate was incubated for 60 min at room temperature in the dark and the plates were read on the Perkin Elmer Envision Multilabel plate reader ([…]).
For the compound `CC(=O)NCC(=O)Nc1cccc(Nc2ncnc3[nH]cc(C(=O)c4ccccc4)c23)c1` [2-acetamido-N-(3-((5-benzoyl-7H-pyrrolo[2,3-d]pyrimidin-4-yl)amino)phenyl)acetamide], it took 0.666 µM to reach half-maximal inhibition (IC50).

Take `O=C(O)c1cccc(Nc2ncnc3[nH]cc(C(=O)c4ccccc4)c23)c1` [3-[(5-benzo-7H-pyrrolo[2,3-d]pyrimidin-4-yl)amino]benzoic acid]: it took 2.19 µM to reach half-maximal inhibition (IC50).

`CN1CCC(NC(=O)c2cccc(Nc3ncnc4[nH]cc(C(=O)c5ccccc5)c34)c2)CC1` [3-[(5-benzoyl-7H-pyrrolo[2,3-d]pyrimidin-4-yl)amino]-N-(1-methylpiperidin-4-yl)benzamide] showed an IC50 of 0.592 µM.

The series is the same for the next values; noted with them: Average of ACK1(110-489), IC50, AlphaScreen (Pyk2); read-out: ACK1 (110-489) IC50.
In the case of `O=C(c1ccccc1)c1c[nH]c2ncnc(Nc3cccc(CO)c3)c12` [drawing 276, (4-{[3-(hydroxymethyl)phenyl]amino}-7H-pyrrolo[2,3-d]pyrimidin-5-yl)(phenyl)methanone], the half-maximal inhibitory concentration (IC50) was 0.24 µM.

With `COC(=O)c1cc(NC(=O)CNC(C)=O)cc(Nc2ncnc3[nH]cc(C(=O)c4ccccc4)c23)c1` [drawing 277, methyl 3-[(N-acetylglycyl)amino]-5-{[5-(phenylcarbonyl)-7H-pyrrolo[2,3-d]pyrimidin-4-yl]amino}benzoate], the IC50 turned out to be 2 µM.

For `Cc1cccc(Nc2ncnc3[nH]cc(C(=O)c4ccccc4)c23)c1` [phenyl(4-(m-tolylamino)-7H-pyrrolo[2,3-d]pyrimidin-5-yl)methanone], the IC50 was 55.4 µM.

Tested on in a further series: not given
Assay: not given
Conditions: not given
`CCOC(=O)c1cccc(Nc2ncnc3[nH]cc(C(=O)c4ccccc4)c23)c1` had a melting point of 256 to 258 °C.

Take `O=C(Nc1ccccc1)c1cccc(Nc2ncnc3[nH]cc(C(=O)c4ccccc4)c23)c1`: the melting point was above 300 °C.

With `CC(C)(C)OC(=O)Nc1cccc(Nc2ncnc3[nH]cc(C(=O)c4ccccc4)c23)c1`, the melting point lay in the range of 288 to 290 °C.

In turn, `CNC(=O)c1cccc(Nc2ncnc3[nH]cc(C(=O)c4ccc(Cl)cc4)c23)c1` gave a melting point above 300 °C.

The compound `Nc1cccc(Nc2ncnc3[nH]cc(C(=O)c4ccccc4)c23)c1` returned a melting point of 280 to 282 °C.

On to `O=C(Nc1cccc(Nc2ncnc3[nH]cc(C(=O)c4ccccc4)c23)c1)c1ccccc1`, for which the melting point was above 300 °C.

The compound `O=C(Cc1cncc(Br)c1)Nc1cccc(Nc2ncnc3[nH]cc(C(=O)c4ccccc4)c23)c1` came in with a melting point above 300 °C.

For the compound `CC(C)(C)OC(=O)NCc1ccc(Nc2ncnc3[nH]cc(C(=O)c4ccccc4)c23)cc1`, the melting point is 256 to 258 °C.

Turning to `NCc1ccc(Nc2ncnc3[nH]cc(C(=O)c4ccccc4)c23)cc1`, the melting point was 255 to 257 °C.

On to `O=C(Nc1ccccc1)Nc1cccc(Nc2ncnc3[nH]cc(C(=O)c4ccccc4)c23)c1`, for which the melting point was above 300 °C.

In turn, `Cn1cc(C(=O)c2ccccc2)c2c(Nc3cccc(N)c3)ncnc21` came in with a melting point of 170 to 173 °C.

In turn, `O=C(NCC1CCCCC1)Nc1cccc(Nc2ncnc3[nH]cc(C(=O)c4ccccc4)c23)c1` showed a melting point of 180 to 182 °C.

In turn, `CC(C)(C)NC(=O)Nc1cccc(Nc2ncnc3[nH]cc(C(=O)c4ccccc4)c23)c1` gave a melting point of 185 to 187 °C.

In the case of `CCNC(=O)Nc1cccc(Nc2ncnc3[nH]cc(C(=O)c4ccccc4)c23)c1`, the melting point lay in the range of 183 to 185 °C.

`O=C(Nc1ccc(Nc2ncnc3[nH]cc(C(=O)c4ccccc4)c23)cc1)c1ccccc1` gave a melting point above 300 °C.

`O=C(c1ccccc1)c1c[nH]c2ncnc(Nc3cccc(CO)c3)c12`: the melting point lay in the range of 273 to 275 °C.

With `CC(C)(C)OC(=O)NCc1cccc(Nc2ncnc3[nH]cc(C(=O)c4ccccc4)c23)c1`, the melting point was 210 to 212 °C.

`NCc1cccc(Nc2ncnc3[nH]cc(C(=O)c4ccccc4)c23)c1` displayed a melting point of 210 to 212 °C.

In turn, `COC(=O)c1cc(NC(=O)CNC(C)=O)cc(Nc2ncnc3[nH]cc(C(=O)c4ccccc4)c23)c1` displayed a melting point above 300 °C.

`CC(=O)NCC(=O)Nc1cc(Cl)cc(Nc2ncnc3[nH]cc(C(=O)c4ccccc4)c23)c1` had a melting point above 300 °C.

In the case of `CC(=O)Nc1cccc(Nc2ncnc3c2c(C(=O)c2ccccc2)cn3C)c1`, the melting point is 140 to 142 °C.

The compound `O=C(c1ccccc1)c1c[nH]c2ncnc(Nc3cccc(CCO)c3)c12` yielded a melting point above 300 °C.

The compound `CC(=O)Nc1cccc(Nc2ncnc3[nH]cc(C(=O)c4cccc(F)c4)c23)c1` showed a melting point above 300 °C.

`CC(=O)Nc1cccc(Nc2ncnc3[nH]cc(C(=O)c4ccccc4C)c23)c1` returned a melting point above 300 °C.

As to `CNC(=O)c1cccc(Nc2ncnc3[nH]cc(C(=O)c4ccccc4C)c23)c1`, the melting point was above 300 °C.

In the case of `CNC(=O)c1cccc(Nc2ncnc3[nH]cc(C(=O)c4cccc5ccccc45)c23)c1`, the melting point is above 300 °C.

Compound `CC(=O)Nc1cccc(Nc2ncnc3[nH]cc(C(=O)c4cccc5ccccc45)c23)c1` yielded a melting point above 300 °C.

As to `Nc1cc(Cl)cc(Nc2ncnc3[nH]cc(C(=O)c4ccccc4)c23)c1`, the melting point is above 300 °C.

The compound `CC(=O)Nc1ccc(Nc2ncnc3[nH]cc(C(=O)c4ccccc4)c23)cc1` registered a melting point of 263 to 264 °C.

For `CC(C)(C)OC(=O)Nc1ccc(Nc2ncnc3[nH]cc(C(=O)c4ccccc4)c23)cc1`, the melting point lay in the range of 274 to 280 °C.

`CNC(=O)c1cccc(Nc2ncnc3[nH]cc(C(=O)c4cccc(F)c4)c23)c1` registered a melting point above 300 °C.

The compound `Nc1cccc(Nc2ncnc3[nH]cc(C(=O)c4ccccc4)c23)n1` gave a melting point above 300 °C.

`O=C(NCCCN1CCCCC1)c1cccc(Nc2ncnc3[nH]cc(C(=O)c4ccccc4)c23)c1` returned a melting point above 300 °C.

Another series addresses AKT1 (Homo sapiens, UniProt P31749). Nature of the series: AKT Kinase Activity Assay (AlphaScreen, crosstide). As to conditions: Average of Akt1 biochemical assay. The procedure: AKT1 activity was assayed using the GSK3-derived biotinylated peptide substrate, crosstide (biotin-GRPRTSSFAEG), and AlphaScreen™ (Amplified Luminescent Proximity Homogeneous Assay) technology. AKT1 activation was achieved by the addition of the activating kinases PDK1 and MAPKAPK2, lipid vesicles, and ATP. The extent of peptide phosphorylation was determined using a phospho-AKT substrate antibody and acceptor beads conjugated to Protein A and donor beads conjugated to streptavidin that bind to the biotin on the peptide. Excitation of the donor beads converted ambient oxygen to excited singlet oxygen which, when in close proximity to acceptor beads, reacted with acceptor beads resulting in signal amplification.
Test inhibitors and controls (Abbott inhibitor, Merck pre-clinical inhibitor, and Merck clinical inhibitor) were prepared in 10% DMSO at 10-fold the desired final concentration, and added to each well of a reaction plate (Corning 96-well half-area solid white nonbinding surface plate) in a volume of 2.5 μL. […] After a 20 minute pre-incubation at room temperature, the kinase reaction was initiated by the addition of 5 μL of an activation mixture diluted in assay buffer containing biotinylated crosstide, PDK1, MAPKAPK2, DOPS/DOPC, PtdIns(3,4,5)P3, and ATP for final concentrations of 60 nM biotinylated crosstide, 0.1 nM PDK1, 0.7 nM MK2, 5.5 μM DOPS, 5.5 μM DOPC, 0.5 μM PtdIns(3,4,5)P3, and 50 μM ATP. The plates were incubated for 30 minutes at room temperature, and then stopped in the dark by the addition of 10 μL stop/detection mixture prepared in assay buffer containing EDTA, AlphaScreen™ Streptavidin Donor and Protein A Acceptor beads, and phospho-AKT substrate antibody for final concentrations of 10 mM EDTA, 500 ng/well of both AlphaScreen™ Streptavidin Donor beads and Protein A Acceptor beads, and phospho-AKT substrate antibody at a final dilution of 1:350. Assay plates were incubated for 90 minutes at room temperature in the dark, and the plates were read on a Perkin Elmer Envision Multilabel plate reader ([…]).
With `Cn1cc(CC(=O)Nc2cccc(Nc3ncnc4[nH]cc(C(=O)c5ccccc5)c34)c2)c2ccccc21` [2-(1-methyl-1H-indol-3-yl)-N-(3-{[5-(phenylcarbonyl)-7H-pyrrolo[2,3-d]pyrimidin-4-yl]amino}phenyl)acetamide], half-maximal inhibition (IC50) required 3.09 µM.

The compound `CC(=O)NCC(=O)Nc1cccc(Nc2ncnc3[nH]cc(C(=O)c4ccccc4)c23)c1` [2-acetamido-N-(3-((5-benzoyl-7H-pyrrolo[2,3-d]pyrimidin-4-yl)amino)phenyl)acetamide] had an IC50 of 0.0949 µM.

Take `CNC(=O)c1cccc(Nc2ncnc3[nH]cc(C(=O)c4ccccc4)c23)c1` [3-((5-benzoyl-7H-pyrrolo[2,3-d]pyrimidin-4-yl)amino)-N-methylbenzamide]: the IC50 was 5.12 µM.

For the compound `O=C(O)c1cccc(Nc2ncnc3[nH]cc(C(=O)c4ccccc4)c23)c1` [3-[(5-benzo-7H-pyrrolo[2,3-d]pyrimidin-4-yl)amino]benzoic acid], inhibition was half-maximal at 3 µM (IC50).

For the compound `CN1CCC(NC(=O)c2cccc(Nc3ncnc4[nH]cc(C(=O)c5ccccc5)c34)c2)CC1` [3-[(5-benzoyl-7H-pyrrolo[2,3-d]pyrimidin-4-yl)amino]-N-(1-methylpiperidin-4-yl)benzamide], the midpoint of inhibition, the IC50, lay at 1.44 µM.

`O=C(Nc1ccccc1)c1cccc(Nc2ncnc3[nH]cc(C(=O)c4ccccc4)c23)c1` [drawing 239, 3-[(5-benzoyl-7H-pyrrolo[2,3-d]pyrimidin-4-yl)amino]-N-phenylbenzamide]: the IC50 was determined as 1.4 µM.

`CC(=O)Nc1cccc(Nc2ncnc3c2c(C(=O)c2ccccc2)cn3C)c1` [drawing 273, N-(3-{[7-methyl-5-(phenylcarbonyl)-7H-pyrrolo[2,3-d]pyrimidin-4-yl]amino}phenyl)acetamide] gave a concentration for half-maximal inhibition (IC50) of 2.51 µM.

As to `NCc1cccc(Nc2ncnc3[nH]cc(C(=O)c4ccccc4)c23)c1` [drawing 278, (4-{[3-(aminomethyl)phenyl]amino}-7H-pyrrolo[2,3-d]pyrimidin-5-yl)(phenyl) methanone], the half-maximal inhibitory concentration (IC50) was determined as 0.186 µM.
